Source: paper PMC5078040 (Oncotarget, 2016)

Legend:
Assay in all cases: KinomeScan
Assay type in all cases: binding
Details in all cases: 1uM
[1] = target: T1, PIK3CA(E542K) (Homo sapiens, UniProt P42336, E542K)
T1 construct: purchased DiscoveRx KINOMEscan

[2] = target: T2, PIK3CA(I800L) (Homo sapiens, UniProt P42336, I800L)
T2 construct: purchased DiscoveRx KINOMEscan

[3] = target: T3, TSSK1B (Homo sapiens, UniProt Q9BXA7)
T3 construct: purchased DiscoveRx KINOMEscan

[4] = target: T4, MEK4 (Homo sapiens, UniProt P45985)
T4 construct: purchased DiscoveRx KINOMEscan

[5] = target: T5, YES (Homo sapiens, UniProt P07947)
T5 construct: purchased DiscoveRx KINOMEscan
T5 sequence (P07947 whole entry): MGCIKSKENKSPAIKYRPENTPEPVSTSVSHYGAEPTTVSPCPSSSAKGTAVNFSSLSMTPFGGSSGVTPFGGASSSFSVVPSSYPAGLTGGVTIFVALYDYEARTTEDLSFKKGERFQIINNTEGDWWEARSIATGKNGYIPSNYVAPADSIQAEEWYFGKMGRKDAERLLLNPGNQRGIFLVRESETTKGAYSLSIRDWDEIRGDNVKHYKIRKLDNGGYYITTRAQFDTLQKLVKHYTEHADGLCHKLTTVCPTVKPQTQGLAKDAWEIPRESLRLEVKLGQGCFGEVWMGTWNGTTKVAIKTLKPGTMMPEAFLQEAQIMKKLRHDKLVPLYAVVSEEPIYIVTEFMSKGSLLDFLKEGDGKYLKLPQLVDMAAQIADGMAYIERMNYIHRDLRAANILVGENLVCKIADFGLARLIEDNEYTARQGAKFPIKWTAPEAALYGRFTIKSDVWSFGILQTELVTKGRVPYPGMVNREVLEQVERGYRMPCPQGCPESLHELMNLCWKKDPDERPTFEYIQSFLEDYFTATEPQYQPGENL

[6] = target: T6, DMPK (Homo sapiens, UniProt Q09013)
T6 construct: purchased DiscoveRx KINOMEscan

[7] = target: T7, FLT3 (Homo sapiens, UniProt P36888)
T7 construct: purchased DiscoveRx KINOMEscan

[8] = target: T8, NEK2 (Homo sapiens, UniProt P51955)
T8 construct: purchased DiscoveRx KINOMEscan

[9] = target: T9, CDK5 (Homo sapiens, UniProt Q00535)
T9 construct: purchased DiscoveRx KINOMEscan

[10] = target: T10, CSNK1G3 (Homo sapiens, UniProt Q9Y6M4)
T10 construct: purchased DiscoveRx KINOMEscan
T10 sequence (Q9Y6M4 whole entry): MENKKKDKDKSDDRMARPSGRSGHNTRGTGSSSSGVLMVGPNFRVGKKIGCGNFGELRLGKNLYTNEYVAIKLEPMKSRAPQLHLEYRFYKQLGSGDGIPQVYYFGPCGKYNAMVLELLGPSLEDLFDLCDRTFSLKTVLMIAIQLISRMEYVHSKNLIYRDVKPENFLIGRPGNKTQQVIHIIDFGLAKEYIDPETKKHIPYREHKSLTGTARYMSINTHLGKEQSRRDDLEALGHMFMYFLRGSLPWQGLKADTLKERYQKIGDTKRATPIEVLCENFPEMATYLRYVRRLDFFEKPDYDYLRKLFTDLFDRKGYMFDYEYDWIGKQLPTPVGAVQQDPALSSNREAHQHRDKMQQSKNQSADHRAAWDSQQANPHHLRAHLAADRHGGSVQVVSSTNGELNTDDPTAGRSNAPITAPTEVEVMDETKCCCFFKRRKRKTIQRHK

[11] = target: T11, MARK2 (Homo sapiens, UniProt Q7KZI7)
T11 construct: purchased DiscoveRx KINOMEscan

[12] = target: T12, IRAK3 (Homo sapiens, UniProt Q9Y616)
T12 construct: purchased DiscoveRx KINOMEscan

[13] = target: T13, TGFBR2 (Homo sapiens, UniProt P37173)
T13 construct: purchased DiscoveRx KINOMEscan

[14] = target: T14, RET(V804M) (Homo sapiens, UniProt P07949, V804M)
T14 construct: purchased DiscoveRx KINOMEscan

[15] = target: T15, PFPK5(P.falciparum) (Plasmodium falciparum, UniProt P61075)
T15 construct: purchased DiscoveRx KINOMEscan

[16] = target: T16, PKMYT1 (Homo sapiens, UniProt Q99640)
T16 construct: purchased DiscoveRx KINOMEscan

[17] = target: T17, PHKG1 (Homo sapiens, UniProt Q16816)
T17 construct: purchased DiscoveRx KINOMEscan

[18] = target: T18, INSR (Homo sapiens, UniProt P06213)
T18 construct: purchased DiscoveRx KINOMEscan

[19] = target: T19, EGFR(L861Q) (Homo sapiens, UniProt P00533, L861Q)
T19 construct: purchased DiscoveRx KINOMEscan

[20] = target: T20, EPHA8 (Homo sapiens, UniProt P29322)
T20 construct: purchased DiscoveRx KINOMEscan

[21] = target: T21, PDGFRA (Homo sapiens, UniProt P16234)
T21 construct: purchased DiscoveRx KINOMEscan
T21 sequence (P16234 24-1089): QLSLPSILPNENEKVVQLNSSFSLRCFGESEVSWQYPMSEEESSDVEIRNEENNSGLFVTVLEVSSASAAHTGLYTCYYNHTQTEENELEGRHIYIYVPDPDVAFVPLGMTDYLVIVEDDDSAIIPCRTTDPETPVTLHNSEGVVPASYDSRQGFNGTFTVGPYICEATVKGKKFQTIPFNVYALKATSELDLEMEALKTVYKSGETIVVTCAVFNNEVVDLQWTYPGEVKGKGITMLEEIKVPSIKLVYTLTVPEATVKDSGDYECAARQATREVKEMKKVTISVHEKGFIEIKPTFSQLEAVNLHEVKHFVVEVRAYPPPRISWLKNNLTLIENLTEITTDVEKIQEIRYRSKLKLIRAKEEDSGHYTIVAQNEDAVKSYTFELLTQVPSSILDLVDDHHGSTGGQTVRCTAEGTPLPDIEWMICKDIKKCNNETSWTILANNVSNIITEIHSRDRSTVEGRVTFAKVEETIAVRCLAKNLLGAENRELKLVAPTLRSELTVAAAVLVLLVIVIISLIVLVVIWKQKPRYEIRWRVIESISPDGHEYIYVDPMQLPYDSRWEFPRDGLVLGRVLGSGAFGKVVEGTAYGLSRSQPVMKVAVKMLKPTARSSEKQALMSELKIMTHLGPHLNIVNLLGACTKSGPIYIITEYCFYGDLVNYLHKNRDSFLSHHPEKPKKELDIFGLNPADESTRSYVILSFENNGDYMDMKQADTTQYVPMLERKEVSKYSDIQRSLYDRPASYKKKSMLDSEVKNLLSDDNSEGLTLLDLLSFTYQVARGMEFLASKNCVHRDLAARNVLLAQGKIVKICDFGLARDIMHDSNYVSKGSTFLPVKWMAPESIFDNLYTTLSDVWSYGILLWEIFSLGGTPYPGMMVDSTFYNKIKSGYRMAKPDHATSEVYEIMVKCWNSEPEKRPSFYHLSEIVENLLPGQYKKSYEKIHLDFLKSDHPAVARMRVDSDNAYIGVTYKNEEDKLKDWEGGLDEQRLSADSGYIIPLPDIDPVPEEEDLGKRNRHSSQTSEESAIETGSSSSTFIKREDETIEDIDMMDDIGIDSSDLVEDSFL

[22] = target: T22, PKNB(M.tuberculosis) (Mycobacterium tuberculosis, UniProt P9WI81)
T22 construct: purchased DiscoveRx KINOMEscan

[23] = target: T23, FER (Homo sapiens, UniProt P16591)
T23 construct: purchased DiscoveRx KINOMEscan

[24] = target: T24, AKT3 (Homo sapiens, UniProt Q9Y243)
T24 construct: purchased DiscoveRx KINOMEscan

[25] = target: T25, MAPKAPK2 (Homo sapiens, UniProt P49137)
T25 construct: purchased DiscoveRx KINOMEscan
T25 sequence (P49137 whole entry): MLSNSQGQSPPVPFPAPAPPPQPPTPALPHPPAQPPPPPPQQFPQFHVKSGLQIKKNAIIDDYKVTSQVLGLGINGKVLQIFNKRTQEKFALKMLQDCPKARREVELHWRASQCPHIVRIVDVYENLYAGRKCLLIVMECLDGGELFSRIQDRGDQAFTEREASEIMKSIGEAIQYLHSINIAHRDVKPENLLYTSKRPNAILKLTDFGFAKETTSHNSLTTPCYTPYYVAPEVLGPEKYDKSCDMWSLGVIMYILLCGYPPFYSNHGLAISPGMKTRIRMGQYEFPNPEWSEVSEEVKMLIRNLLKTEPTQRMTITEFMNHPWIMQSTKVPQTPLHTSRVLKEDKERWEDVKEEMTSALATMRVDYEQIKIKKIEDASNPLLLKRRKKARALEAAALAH

[26] = target: T26, MTOR (Homo sapiens, UniProt P42345)
T26 construct: purchased DiscoveRx KINOMEscan

[27] = target: T27, CAMK2B (Homo sapiens, UniProt Q13554)
T27 construct: purchased DiscoveRx KINOMEscan

[28] = target: T28, HASPIN (Homo sapiens, UniProt Q8TF76)
T28 construct: purchased DiscoveRx KINOMEscan

[29] = target: T29, LTK (Homo sapiens, UniProt P29376)
T29 construct: purchased DiscoveRx KINOMEscan

[30] = target: T30, PLK2 (Homo sapiens, UniProt Q9NYY3)
T30 construct: purchased DiscoveRx KINOMEscan
T30 sequence (Q9NYY3 whole entry): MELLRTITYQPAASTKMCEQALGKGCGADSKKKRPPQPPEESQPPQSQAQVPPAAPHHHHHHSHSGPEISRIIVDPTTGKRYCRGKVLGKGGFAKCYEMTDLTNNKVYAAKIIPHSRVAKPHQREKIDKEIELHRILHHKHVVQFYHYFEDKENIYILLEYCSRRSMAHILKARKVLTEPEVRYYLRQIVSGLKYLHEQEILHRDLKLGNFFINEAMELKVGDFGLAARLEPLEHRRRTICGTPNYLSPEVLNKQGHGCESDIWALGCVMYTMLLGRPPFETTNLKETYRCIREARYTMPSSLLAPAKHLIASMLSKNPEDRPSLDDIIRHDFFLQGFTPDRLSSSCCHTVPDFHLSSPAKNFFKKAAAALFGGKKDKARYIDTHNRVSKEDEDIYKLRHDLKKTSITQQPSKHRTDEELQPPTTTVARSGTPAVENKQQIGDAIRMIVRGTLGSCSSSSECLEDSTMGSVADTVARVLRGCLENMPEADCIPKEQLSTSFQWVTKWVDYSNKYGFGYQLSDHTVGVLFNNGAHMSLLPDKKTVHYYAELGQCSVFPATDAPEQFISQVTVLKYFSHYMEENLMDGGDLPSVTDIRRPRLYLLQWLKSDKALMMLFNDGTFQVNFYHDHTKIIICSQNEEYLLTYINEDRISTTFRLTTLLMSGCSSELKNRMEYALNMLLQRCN

[31] = target: T31, PRKCD (Homo sapiens, UniProt Q05655)
T31 construct: purchased DiscoveRx KINOMEscan

[32] = target: T32, SGK2 (Homo sapiens, UniProt Q9HBY8)
T32 construct: purchased DiscoveRx KINOMEscan

[33] = target: T33, SNARK (Homo sapiens, UniProt Q9H093)
T33 construct: purchased DiscoveRx KINOMEscan

[34] = target: T34, EGFR(G719C) (Homo sapiens, UniProt P00533, G719C)
T34 construct: purchased DiscoveRx KINOMEscan

[35] = target: T35, FYN (Homo sapiens, UniProt P06241)
T35 construct: purchased DiscoveRx KINOMEscan

[36] = target: T36, CAMK2A (Homo sapiens, UniProt Q9UQM7)
T36 construct: purchased DiscoveRx KINOMEscan
T36 sequence (Q9UQM7 whole entry): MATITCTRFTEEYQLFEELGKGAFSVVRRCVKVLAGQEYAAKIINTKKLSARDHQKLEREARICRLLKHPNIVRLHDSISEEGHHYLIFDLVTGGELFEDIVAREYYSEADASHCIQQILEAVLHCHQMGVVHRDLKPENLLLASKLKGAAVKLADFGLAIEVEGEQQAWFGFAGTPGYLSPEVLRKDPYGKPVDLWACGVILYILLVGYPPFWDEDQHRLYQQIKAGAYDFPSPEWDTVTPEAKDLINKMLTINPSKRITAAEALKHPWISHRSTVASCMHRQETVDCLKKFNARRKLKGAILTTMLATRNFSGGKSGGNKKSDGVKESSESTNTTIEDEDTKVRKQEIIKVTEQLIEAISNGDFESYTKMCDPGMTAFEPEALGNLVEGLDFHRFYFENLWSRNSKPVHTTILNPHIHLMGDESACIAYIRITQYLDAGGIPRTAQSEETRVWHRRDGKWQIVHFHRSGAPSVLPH

[37] = target: T37, MET(M1250T) (Homo sapiens, UniProt P08581, M1250T)
T37 construct: purchased DiscoveRx KINOMEscan

[38] = target: T38, ABL1(F317I)-nonphosphorylated (Homo sapiens, UniProt P00519, F317I)
T38 construct: purchased DiscoveRx KINOMEscan

[39] = target: T39, ERK1 (Homo sapiens, UniProt P27361)
T39 construct: purchased DiscoveRx KINOMEscan
T39 sequence (P27361 whole entry): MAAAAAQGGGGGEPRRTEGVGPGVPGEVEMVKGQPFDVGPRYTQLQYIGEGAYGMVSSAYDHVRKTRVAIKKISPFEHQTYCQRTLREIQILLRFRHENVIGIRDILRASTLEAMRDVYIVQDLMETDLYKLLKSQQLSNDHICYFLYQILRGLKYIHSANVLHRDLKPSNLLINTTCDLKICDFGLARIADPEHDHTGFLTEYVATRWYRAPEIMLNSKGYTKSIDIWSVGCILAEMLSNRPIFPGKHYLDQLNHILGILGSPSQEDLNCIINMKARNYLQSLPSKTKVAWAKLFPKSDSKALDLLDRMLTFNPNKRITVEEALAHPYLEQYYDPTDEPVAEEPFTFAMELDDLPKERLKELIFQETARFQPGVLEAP

[40] = target: T40, PIP5K1C (Homo sapiens, UniProt O60331)
T40 construct: purchased DiscoveRx KINOMEscan

[41] = target: T41, CAMK2G (Homo sapiens, UniProt Q13555)
T41 construct: purchased DiscoveRx KINOMEscan

[42] = target: T42, NIM1 (Homo sapiens, UniProt Q8IY84)
T42 construct: purchased DiscoveRx KINOMEscan

[43] = target: T43, PIK3CB (Homo sapiens, UniProt P42338)
T43 construct: purchased DiscoveRx KINOMEscan

[44] = target: T44, NIK (Homo sapiens, UniProt Q99558)
T44 construct: purchased DiscoveRx KINOMEscan
T44 sequence (Q99558 whole entry): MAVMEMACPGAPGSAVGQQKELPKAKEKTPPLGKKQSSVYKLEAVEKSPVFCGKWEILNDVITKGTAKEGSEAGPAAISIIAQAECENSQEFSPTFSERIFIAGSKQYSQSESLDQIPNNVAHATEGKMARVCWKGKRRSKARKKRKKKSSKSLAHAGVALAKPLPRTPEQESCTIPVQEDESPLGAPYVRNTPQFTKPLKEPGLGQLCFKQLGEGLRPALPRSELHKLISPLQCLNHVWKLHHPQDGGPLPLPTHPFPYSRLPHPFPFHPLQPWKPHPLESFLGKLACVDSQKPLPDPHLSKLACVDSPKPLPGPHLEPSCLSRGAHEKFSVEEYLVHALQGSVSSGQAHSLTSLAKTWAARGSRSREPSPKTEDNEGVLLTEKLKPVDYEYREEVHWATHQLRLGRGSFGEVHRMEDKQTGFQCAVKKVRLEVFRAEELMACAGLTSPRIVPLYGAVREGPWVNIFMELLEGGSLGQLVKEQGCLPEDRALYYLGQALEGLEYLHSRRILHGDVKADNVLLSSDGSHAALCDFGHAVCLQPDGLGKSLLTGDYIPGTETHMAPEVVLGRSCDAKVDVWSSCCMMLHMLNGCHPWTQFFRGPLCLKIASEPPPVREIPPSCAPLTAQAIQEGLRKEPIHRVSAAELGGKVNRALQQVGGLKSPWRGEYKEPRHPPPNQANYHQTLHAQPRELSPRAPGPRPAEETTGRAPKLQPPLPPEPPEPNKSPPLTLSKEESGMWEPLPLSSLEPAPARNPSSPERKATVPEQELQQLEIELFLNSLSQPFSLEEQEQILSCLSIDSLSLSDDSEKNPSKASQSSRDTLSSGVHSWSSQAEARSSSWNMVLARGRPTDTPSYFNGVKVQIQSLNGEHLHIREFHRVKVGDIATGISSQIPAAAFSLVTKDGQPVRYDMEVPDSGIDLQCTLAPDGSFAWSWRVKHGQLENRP

Cc1nc(NC(=O)[C@@H](N)C(C)C)sc1-c1cnc(Cl)c(NS(=O)(=O)c2ccccc2)c1 [PI3KD-IN-015]
KinomeScan PIK3CA(E542K) [1]: 5.4
KinomeScan PIK3CA(I800L) [2]: 0.5
KinomeScan TSSK1B [3]: 97
KinomeScan MEK4 [4]: 100
KinomeScan YES [5]: 100
KinomeScan DMPK [6]: 83
KinomeScan FLT3 [7]: 100
KinomeScan NEK2 [8]: 100
KinomeScan CDK5 [9]: 100
KinomeScan CSNK1G3 [10]: 96
KinomeScan MARK2 [11]: 95
KinomeScan IRAK3 [12]: 100
KinomeScan TGFBR2 [13]: 100
KinomeScan RET(V804M) [14]: 100
KinomeScan PFPK5(P.falciparum) [15]: 100
KinomeScan PKMYT1 [16]: 100
KinomeScan PHKG1 [17]: 100
KinomeScan INSR [18]: 74
KinomeScan EGFR(L861Q) [19]: 95
KinomeScan EPHA8 [20]: 100
KinomeScan PDGFRA [21]: 94
KinomeScan PKNB(M.tuberculosis) [22]: 79
KinomeScan FER [23]: 89
KinomeScan AKT3 [24]: 89
KinomeScan MAPKAPK2 [25]: 95
KinomeScan MTOR [26]: 28
KinomeScan CAMK2B [27]: 91
KinomeScan HASPIN [28]: 94
KinomeScan LTK [29]: 100
KinomeScan PLK2 [30]: 83
KinomeScan PRKCD [31]: 100
KinomeScan SGK2 [32]: 81
KinomeScan SNARK [33]: 97
KinomeScan EGFR(G719C) [34]: 100
KinomeScan FYN [35]: 100
KinomeScan CAMK2A [36]: 94
KinomeScan MET(M1250T) [37]: 74
KinomeScan ABL1(F317I)-nonphosphorylated [38]: 100
KinomeScan ERK1 [39]: 100
KinomeScan PIP5K1C [40]: 72
KinomeScan CAMK2G [41]: 100
KinomeScan NIM1 [42]: 100
KinomeScan PIK3CB [43]: 0
KinomeScan NIK [44]: 83
